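Exposure lasted 48 hours, with cells grown in 96-well plates and compounds tested at five concentrations. The concentration for full growth arrest is given as TGI.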
Assays:
Test in all cases: DTP human tumour cell line panel, 48 h
MOLT-4 leukemia = test system: MOLT-4 leukemia
TK-10 renal = test system: TK-10 renal
T-47D breast = test system: T-47D breast
LOX IMVI melanoma = test system: LOX IMVI melanoma
NCI-H460 lung = test system: NCI-H460 lung
MCF7 breast = test system: MCF7 breast
MDA-MB-435 = test system: MDA-MB-435
MALME-3M melanoma = test system: MALME-3M melanoma
RXF 393 renal = test system: RXF 393 renal
SNB-19 CNS = test system: SNB-19 CNS
OVCAR-3 ovarian = test system: OVCAR-3 ovarian
NCI-H522 lung = test system: NCI-H522 lung
COLO 205 colon = test system: COLO 205 colon
NCI-H226 lung = test system: NCI-H226 lung
SF-268 CNS = test system: SF-268 CNS
DU-145 prostate = test system: DU-145 prostate
UO-31 renal = test system: UO-31 renal
BT-549 breast = test system: BT-549 breast
OVCAR-4 ovarian = test system: OVCAR-4 ovarian
A498 renal = test system: A498 renal
PC-3 prostate = test system: PC-3 prostate
A549 NSCLC = test system: A549 NSCLC
SK-MEL-2 melanoma = test system: SK-MEL-2 melanoma
MDA-MB-231 breast = test system: MDA-MB-231 breast
CAKI-1 renal = test system: CAKI-1 renal
HOP-62 NSCLC = test system: HOP-62 NSCLC
UACC-62 melanoma = test system: UACC-62 melanoma
HCT-15 colon = test system: HCT-15 colon
HL-60(TB) leukemia = test system: HL-60(TB) leukemia
UACC-257 melanoma = test system: UACC-257 melanoma
SK-OV-3 ovarian = test system: SK-OV-3 ovarian
IGROV1 ovarian = test system: IGROV1 ovarian
SNB-75 CNS = test system: SNB-75 CNS
NCI/ADR-RES ovarian = test system: NCI/ADR-RES ovarian
HCC-2998 colon = test system: HCC-2998 colon
EKVX NSCLC = test system: EKVX NSCLC
ACHN renal = test system: ACHN renal
SF-295 CNS = test system: SF-295 CNS
HOP-92 NSCLC = test system: HOP-92 NSCLC
786-0 renal = test system: 786-0 renal
SW-620 colon = test system: SW-620 colon
SK-MEL-28 melanoma = test system: SK-MEL-28 melanoma
HT29 colon = test system: HT29 colon
SR leukemia = test system: SR leukemia
OVCAR-5 ovarian = test system: OVCAR-5 ovarian
U251 CNS = test system: U251 CNS
HS 578T breast = test system: HS 578T breast
MDA-N = test system: MDA-N
KM12 colon = test system: KM12 colon
CCRF-CEM leukemia = test system: CCRF-CEM leukemia
SK-MEL-5 melanoma = test system: SK-MEL-5 melanoma
RPMI-8226 leukemia = test system: RPMI-8226 leukemia
NCI-H23 lung = test system: NCI-H23 lung
HCT-116 colon = test system: HCT-116 colon
SF-539 CNS = test system: SF-539 CNS
OVCAR-8 ovarian = test system: OVCAR-8 ovarian
K-562 leukemia = test system: K-562 leukemia
SN12C renal = test system: SN12C renal
M14 melanoma = test system: M14 melanoma
HOP-18 NSCLC = test system: HOP-18 NSCLC
LXFL 529 NSCLC = test system: LXFL 529 NSCLC
DMS 273 small cell lung = test system: DMS 273 small cell lung
M19-MEL melanoma = test system: M19-MEL melanoma
KM20L2 colon = test system: KM20L2 colon
SNB-78 CNS = test system: SNB-78 CNS
DLD-1 colon = test system: DLD-1 colon
XF 498 CNS = test system: XF 498 CNS

COc1cccc(C2c3cc4c(cc3OC(C)(N3CCCC3)C2C)OCO4)c1O (stereo unspecified)
TGI (MOLT-4 leukemia): > 54.6 µM
TGI (TK-10 renal): 77.1 µM
TGI (T-47D breast): > 100 µM
TGI (LOX IMVI melanoma): 19.2 µM
TGI (NCI-H460 lung): 37 µM
TGI (MCF7 breast): > 37.1 µM
TGI (MDA-MB-435): 3.82 µM
TGI (MALME-3M melanoma): 42.3 µM
TGI (RXF 393 renal): > 40.6 µM
TGI (SNB-19 CNS): > 100 µM
TGI (OVCAR-3 ovarian): 5.45 µM
TGI (NCI-H522 lung): 6.01 µM
TGI (COLO 205 colon): 10.4 µM
TGI (NCI-H226 lung): 19.9 µM
TGI (SF-268 CNS): > 72.5 µM
TGI (DU-145 prostate): 15.3 µM
TGI (UO-31 renal): 56.4 µM
TGI (BT-549 breast): 48.2 µM
TGI (OVCAR-4 ovarian): > 100 µM
TGI (A498 renal): 40.5 µM
TGI (PC-3 prostate): > 43.5 µM
TGI (A549 NSCLC): 75 µM
TGI (SK-MEL-2 melanoma): > 23.5 µM
TGI (MDA-MB-231 breast): 18.4 µM
TGI (CAKI-1 renal): 28.7 µM
TGI (HOP-62 NSCLC): 31.6 µM
TGI (UACC-62 melanoma): 46.8 µM
TGI (HCT-15 colon): 29 µM
TGI (HL-60(TB) leukemia): 6.01 µM
TGI (UACC-257 melanoma): > 100 µM
TGI (SK-OV-3 ovarian): 38.4 µM
TGI (IGROV1 ovarian): > 70 µM
TGI (SNB-75 CNS): 17.2 µM
TGI (NCI/ADR-RES ovarian): 11.8 µM
TGI (HCC-2998 colon): 25.6 µM
TGI (EKVX NSCLC): > 91.6 µM
TGI (ACHN renal): > 83.1 µM
TGI (SF-295 CNS): 17.5 µM
TGI (HOP-92 NSCLC): 71.4 µM
TGI (786-0 renal): > 56 µM
TGI (SW-620 colon): > 100 µM
TGI (SK-MEL-28 melanoma): > 100 µM
TGI (HT29 colon): 12.2 µM
TGI (SR leukemia): 19.3 µM
TGI (OVCAR-5 ovarian): 77.3 µM
TGI (U251 CNS): 53.8 µM
TGI (HS 578T breast): 5.59 µM
TGI (MDA-N): 5.81 µM
TGI (KM12 colon): 27.4 µM
TGI (CCRF-CEM leukemia): 21.2 µM
TGI (SK-MEL-5 melanoma): 13.3 µM
TGI (RPMI-8226 leukemia): 36.5 µM
TGI (NCI-H23 lung): 8.9 µM
TGI (HCT-116 colon): 47.9 µM
TGI (SF-539 CNS): 21.8 µM
TGI (OVCAR-8 ovarian): 40 µM
TGI (K-562 leukemia): 18.3 µM
TGI (SN12C renal): 48.6 µM
TGI (M14 melanoma): 14 µM

NC(=O)NO.O.O.O.O.O.O.O.O.O.O.O.[Ge].[Ge].[Ge].[Ge].[Ge].[O]=[Ge].[O]=[Ge].[O]=[Ge].[O]=[Ge].[O]=[Ge][OH]
TGI (MOLT-4 leukemia): > 100 µM
TGI (TK-10 renal): > 100 µM
TGI (LOX IMVI melanoma): > 100 µM
TGI (NCI-H460 lung): > 100 µM
TGI (MALME-3M melanoma): > 100 µM
TGI (RXF 393 renal): > 100 µM
TGI (SNB-19 CNS): > 100 µM
TGI (OVCAR-3 ovarian): > 100 µM
TGI (NCI-H522 lung): > 100 µM
TGI (COLO 205 colon): > 100 µM
TGI (NCI-H226 lung): > 100 µM
TGI (SF-268 CNS): > 100 µM
TGI (HOP-18 NSCLC): > 100 µM
TGI (UO-31 renal): > 100 µM
TGI (LXFL 529 NSCLC): > 100 µM
TGI (OVCAR-4 ovarian): > 100 µM
TGI (A498 renal): > 100 µM
TGI (A549 NSCLC): > 100 µM
TGI (SK-MEL-2 melanoma): > 100 µM
TGI (CAKI-1 renal): > 100 µM
TGI (HOP-62 NSCLC): > 100 µM
TGI (UACC-62 melanoma): 53.5 µM
TGI (HCT-15 colon): > 100 µM
TGI (DMS 273 small cell lung): > 100 µM
TGI (HL-60(TB) leukemia): 12.6 µM
TGI (M19-MEL melanoma): > 100 µM
TGI (KM20L2 colon): > 100 µM
TGI (UACC-257 melanoma): > 100 µM
TGI (SK-OV-3 ovarian): > 100 µM
TGI (IGROV1 ovarian): > 100 µM
TGI (SNB-75 CNS): > 100 µM
TGI (HCC-2998 colon): > 100 µM
TGI (EKVX NSCLC): > 100 µM
TGI (ACHN renal): > 100 µM
TGI (SF-295 CNS): > 100 µM
TGI (HOP-92 NSCLC): > 100 µM
TGI (786-0 renal): > 100 µM
TGI (SW-620 colon): > 100 µM
TGI (SK-MEL-28 melanoma): > 100 µM
TGI (HT29 colon): > 100 µM
TGI (SR leukemia): > 100 µM
TGI (OVCAR-5 ovarian): > 100 µM
TGI (SNB-78 CNS): > 100 µM
TGI (DLD-1 colon): > 100 µM
TGI (U251 CNS): 69.9 µM
TGI (KM12 colon): > 100 µM
TGI (CCRF-CEM leukemia): > 81.6 µM
TGI (SK-MEL-5 melanoma): > 100 µM
TGI (RPMI-8226 leukemia): > 100 µM
TGI (NCI-H23 lung): > 100 µM
TGI (HCT-116 colon): > 100 µM
TGI (SF-539 CNS): > 100 µM
TGI (OVCAR-8 ovarian): > 100 µM
TGI (K-562 leukemia): > 100 µM
TGI (SN12C renal): > 100 µM
TGI (XF 498 CNS): > 100 µM
TGI (M14 melanoma): > 89 µM
